Data set [1] has as its system Tachyzoites of the RH strain of T. gondii. The data set is described as follows: T. gondii tachyzoite growth in human foreskin fibroblasts, 3H uracil uptake and microscopy. The format is cell-based. The note with it: Toxoplasma gondii, Fibroblast, RH strain tachyzoites in HFF, 3H uracil uptake after four days in culture. As to the method:
Tachyzoites of the RH strain of T. gondii were passaged in human foreskin fibroblasts (HFF). They were used to infect fibroblasts to determine antimicrobial effects of candidate compounds. Outcome was assessed with microscopy and uracil uptake after four days in culture as described,[12],[13]. Briefly, for testing of inhibitors in vitro against T. gondii tachyzoites, four-day old confluent cultures of human foreskin fibroblasts (HFF) were infected with 10^3 tachyzoites and cultured for 1 hour to allow parasite invasion. Inhibitor was added and cells cultured for 3 days. They were supplemented with ^3H uracil and incubation extended for a further day, whereupon uracil incorporation into cells and thus parasite growth were assessed by liquid scintillation counting,[12],[13]. Studies were performed with inhibitors as described in [8],[12],[13].
For in vitro studies, a stock solution of JPC-2067-B was initially dissolved in 100% dimethyl sulfoxide (DMSO) and then diluted in complete tissue culture medium (IMDM-C) [IMDM with NaHCO3 and 25 mM Hepes (Cambrex Bio Science, Walkersville, MD), 10% fetal bovine serum (Gibco, Grand Island, N.Y.), 1× antibiotic-antimycotic solution (Cellgro, Mediatech), and 2 mM L-glutamine (Gibco). Working concentrations of JPC-2067-B were made using IMDM-C. Concentrations measured ranged from 10 to 100 nM. […]

In another data set the target is PfDHFR (Plasmodium falciparum, UniProt Q8I1R6). The data set is described as follows: Plate reader DHFR assay, recombinant P. falciparum DHFR. The format is biochemical. The source says:
DHFR from T. gondii prepared as above was also directly compared to purified recombinant P. falciparum DHFR (pfDHFR) and purified recombinant human DHFR (hDHFR). The hDHFR was from pDFR plasmid. The enzyme was purified following ammonium sulfate precipitation, methotrexate:agarose affinity chromatography, and finally a Superdex 200 size exclusion column. The pfDHFR isolation methods were those reported previously,[44]. […] The same buffer as used in the other assays comparing T. gondii DHFR with DHFRs from rat liver P. carinii and M. avium intracellulare was used but the maximal activity, temperature, and length of observation were adjusted for assays on the specific plate reader. […] The reaction was setup at 23°C, the plate loaded, and the OD340 recorded at 20 second intervals for 10 minutes. The first 8 minutes were used to generate linear fit slopes in Excel. […] Results are expressed as the percent of control activity versus log concentration of inhibitor. Prism 5.0 was used to generate curves from 12 different concentrations of inhibitor using a non-linear fit method.

For a further data set, the target named is T1, Mav DHFR (Mycobacterium avium, UniProt O30463).
T1 construct: the bacteria were centrifuged, sonicated, and the 100,000 Xg supernate was stored under liquid nitrogen until assay; endogenous in cells; host or cells: M. avium-intracellulare clinical isolate (serovar 4), Indiana University School of Medicine
T1 sequence (O30463 1-181): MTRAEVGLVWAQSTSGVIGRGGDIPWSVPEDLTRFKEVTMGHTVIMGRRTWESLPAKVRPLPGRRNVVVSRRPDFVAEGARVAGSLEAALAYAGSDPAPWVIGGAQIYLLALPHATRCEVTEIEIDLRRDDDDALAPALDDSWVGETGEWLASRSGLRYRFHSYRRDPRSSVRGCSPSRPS
Kind of data set: Spectrophotometric DHFR assay, Mycobacterium avium-intracellulare DHFR. The format is biochemical. The following applies: 37°C; (95% confidence limits). As to the method: Mycobacterium avium-intracellulare used in these studies was a clinical isolate (serovar 4) from Indiana University School of Medicine, Department of Pathology. The strain was maintained on Lowenstein-Jensen slants (Baxter Scientific) grown at room temperature. To produce enzyme, the organism was grown in Middlebrook 7H-9 liquid medium at 37°C to an OD660 of 0.5 to 0.7, which took several weeks. At harvest, the bacteria were centrifuged, sonicated, and the 100,000 Xg supernate was stored under liquid nitrogen until assay. These supernates contained both DHFR and dihydroopteroate synthetase activity.
The spectrophotometric assay for DHFR was optimized for temperature and concentration of substrate and cofactor for each enzyme. The standard assay contained Na phosphate buffer pH 7.4 (40.7 mM), 2-mercaptoethanol (8.9 mM), NADPH (0.117 mM), dihydrofolic acid (0.09 mM), KCL (150 mM), and sufficient enzyme to produce a change in OD340 of 0.035/minute at 37°C. The reaction was continuously recorded for 3 minutes. Activity under these conditions was linear with enzyme concentration over a 4-fold range. The low background activity in the absence of dihydrofolic acid was subtracted from all rates.
(§1) DHFR was assayed with several concentrations of inhibitor to produce rates ranging from 1 to 90% of the uninhibited rate. At least three concentrations were required for calculation; most curves contained five concentrations.

The subject of data set [2] is tester strains TA97, TA98, TA100, TA102 and TA1535. Kind of data set: Ames Test with and without microsomal activation. As to the method:
A 42-day toxicology study in CD-1 mice at doses up to 98 mg/kg evaluating well-being, weight gain, and histopathology was performed. […] 7.5 mg/kg was established as the NOAEL (No Observed Adverse Effect Level). JPC-2056 and JPC-2067 were assayed in the Ames Test with and without microsomal activation with tester strains TA97, TA98, TA100, TA102 and TA1535.

Another data set addresses T2, Pc DHFR (Pneumocystis carinii, UniProt P16184).
T2 construct: made in house; host or cells: Escherichia coli
T2 sequence (P16184 1-206): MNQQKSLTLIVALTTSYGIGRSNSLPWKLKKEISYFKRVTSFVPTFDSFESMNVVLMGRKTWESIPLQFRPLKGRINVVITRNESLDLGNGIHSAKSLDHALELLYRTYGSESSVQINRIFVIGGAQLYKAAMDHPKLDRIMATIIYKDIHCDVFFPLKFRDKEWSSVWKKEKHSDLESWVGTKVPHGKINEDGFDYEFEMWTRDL
The data set is described as follows: Spectrophotometric DHFR assay, Pneumocystis carinii DHFR. The data set is classed as biochemical. The note with it: 37°C; (95% confidence limits); read-out: Pc DHFR IC50.
From the text: DHFR from Pneumocystis carinii was produced as the recombinant enzyme expressed in Escherichia coli. […] DHFR from T. gondii was isolated directly from RH strain T. gondii grown in culture on Chinese hamster ovary cells lacking DHFR (CHO/dhfr^-, American Type Culture Collection 3952 CL). Organisms were introduced into a confluent monolayer and harvested when the mammalian cells were lysed. The 100,000× g supernate was stored in liquid nitrogen.
The spectrophotometric assay for DHFR was optimized for temperature and concentration of substrate and cofactor for each enzyme. The standard assay contained Na phosphate buffer pH 7.4 (40.7 mM), 2-mercaptoethanol (8.9 mM), NADPH (0.117 mM), dihydrofolic acid (0.09 mM), KCL (150 mM), and sufficient enzyme to produce a change in OD340 of 0.035/minute at 37°C. The reaction was continuously recorded for 3 minutes. […] The low background activity in the absence of dihydrofolic acid was subtracted from all rates.
as §1

Read-outs that look alike come from different tables or passages of the source.

In general, IC50 refers to the concentration that inhibits the measured activity by half. One may read the IC90 as the point of the concentration-response curve where the effect stands at 90%.

Chain of PfDHFR (Q8I1R6 entry or part of it): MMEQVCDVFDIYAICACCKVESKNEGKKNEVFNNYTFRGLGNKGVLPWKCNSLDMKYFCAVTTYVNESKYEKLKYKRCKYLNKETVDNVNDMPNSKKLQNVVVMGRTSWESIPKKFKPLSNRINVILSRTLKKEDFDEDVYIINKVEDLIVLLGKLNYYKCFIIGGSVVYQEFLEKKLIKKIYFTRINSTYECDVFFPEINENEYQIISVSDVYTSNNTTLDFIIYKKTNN

As for `CC1(C)N=C(N)N=C(N)N1OCCCOc1ccc(OC(F)(F)F)cc1Cl` [JPC-2067-B, 4,6-diamino-1,2-dihydro-2,2-dimethyl-1-(3′(2-chloro-, 4-trifluoromethoxyphenoxy)propyloxy)-1,3,5-triazine], the IC50 was 20 nM in data set [1]; 3.88 nM on PfDHFR (recombinant, 23°C, (95% Confidence Intervals), read-out: PfDHFR IC50); 3.9 nM at PfDHFR (text to Figure 5 and Table 2, read-out: IC50 for P. falciparum DHFR); 3.75 nM against Mav DHFR; 3.93 nM at Pc DHFR. Also, the IC90 in data set [1] (read-out: IC90, T. gondii tachyzoites in tissue culture) turned out to be 50 nM. Besides, in data set [2], the “Ames Test, with and without microsomal activation” value is “No activity”. Moreover, the “Ames w/o Activation” value in data set [2] was “Not Active ^*”. Also, the “Ames with Activation” value in data set [2] was “Not Active ^*”.

Values taken from paper PMC2254147, “Novel Triazine JPC-2067-B Inhibits Toxoplasma gondii In Vitro and In Vivo” (PLoS Neglected Tropical Diseases, 2008).
